Legend:
[1] = log P by HPLC on reversed-phase column (C 18), EEC Directive 79/831 Annex V.A8; assay type: physicochemical; details: 55° C.; for LOGP_HCOOH: log P (HCOOH)
Method: Temperature: 55° C. […] Called log P (HCOOH) in the table. […] Called log P (neutral) in the table.

Ctenocephalides felis = Ctenocephalides felis oral test; assay type: in vivo; details: application rate 100 ppm in citrated cattle blood, after 2 days, adult cat fleas
Method: Ctenocephalides felis—Oral Test Solvent: dimethyl sulphoxide To produce a suitable active ingredient formulation, 10 mg of active ingredient are mixed with 0.5 ml of dimethyl sulphoxide. Dilution with citrated cattle blood gives the desired concentration. About 20 unfed adult cat fleas (Ctenocephalides felis) are placed into a chamber which is closed at the top and bottom with gauze. A metal cylinder whose bottom end is closed with parafilm is placed onto the chamber. The cylinder contains the blood/active ingredient formulation, which can be imbibed by the fleas through the parafilm membrane. After 2 days, the kill in % is determined. 100% means that all of the fleas have been killed; 0% means that none of the fleas have been killed.

Lucilia cuprina = Lucilia cuprina test; assay type: in vivo; details: application rate 100 ppm, after 2 days, L1 larvae
Method: Lucilia cuprina Test Solvent: dimethyl sulphoxide To produce a suitable active ingredient formulation, 10 mg of active ingredient are mixed with 0.5 ml of dimethyl sulphoxide, and the concentrate is diluted with water to the desired concentration. About 20 L1 larvae of the Australian sheep blowfly (Lucilia cuprina) are transferred into a test vessel containing minced horsemeat and the active ingredient formulation of the desired concentration. After 2 days, the kill in % is determined. 100% means that all the larvae have been killed; 0% means that no larvae have been killed.

Phaedon cochleariae = Phaedon cochleariae spray test; assay type: in vivo; details: after 7 days, Chinese cabbage leaf discs
How it was run: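 Larval kill read at day 7 as percent, where 100% means every larva dead and 0% none; larvae were placed on dried Brassica pekinensis leaf discs previously sprayed with the formulation (acetone/dimethylformamide solvent, alkylaryl polyglycol ether emulsifier, water).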

Spodoptera frugiperda = Spodoptera frugiperda spray test; assay type: in vivo; details: after 7 days, maize leaf discs
How it was run: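 Efficacy in % was scored at 7 days against armyworm caterpillars placed on dried, compound-sprayed Zea mays leaf discs. Compound was dissolved in acetone/dimethylformamide and diluted in water with 1000 ppm alkylaryl polyglycol ether. 100% means all caterpillars were killed.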

[2] = acidic range pH 2.7, 0.1% aqueous formic acid and acetonitrile, reversed-phase column (C 18)
[3] = log P (neutral), HPLC reversed-phase column (C 18)
[4] = acidic range at pH 2.7, 0.1% aqueous formic acid and acetonitrile, HPLC on reversed-phase column (C 18)
[5] = log P, neutral range, HPLC on reversed-phase column (C 18)

Row | LOGP_HCOOH [1, 2] | LOGP_NEUTRAL [1, 3] | LOGP_HCOOH [1, 4] | LOGP_NEUTRAL [1, 5] | SMILES | efficacy (kill in %) (Ctenocephalides felis) [%] | efficacy (kill in %) (Lucilia cuprina) [%] | efficacy (beetle larvae killed) (Phaedon cochleariae; application rate 100 g/ha) [%] | efficacy (beetle larvae killed) (Phaedon cochleariae; application rate 500 g/ha) [%] | efficacy (caterpillars killed) (Spodoptera frugiperda; application rate 100 g/ha) [%] | efficacy (caterpillars killed) (Spodoptera frugiperda; application rate 500 g/ha) [%]
1 | 4.56 | 4.49 |  |  | CC(NC(=O)c1cc(-c2ccc(C(F)(F)C(F)(F)F)c(F)c2)cc(NC(=O)C2CC2)n1)c1ccc(C#N)cc1 (stereo not shown) [Example I-247] | 100 | 100 | 100 | 100 | 100 | 100
2 |  |  | 4.07 | 3.86 | N#Cc1ccc(CNC(=O)c2cc(-c3ccc(SC4CC4)cc3)cc(NC(=O)C3CC3)n2)cc1 [Example I-142] | 100 | 90 | 100 | 100 |  | 
3 |  |  |  | 3.47 | N#Cc1ccc(CNC(=O)c2cc(-c3ccc(S(=O)(=O)C(F)(F)F)cc3)cc(NC(=O)C3CC3)n2)cc1 [Example I-096] | 100 | 100 | 100 | 100 | 100 | 100
4 | 4.28 |  |  | 4.15 | O=C(NCc1ccc(-c2ncon2)cc1)c1cc(-c2ccc(SC(F)(F)F)cc2)cc(NC(=O)C2CC2)n1 [Example I-093] | 95 | 100 | 100 | 100 |  | 100
5 |  |  | 3.84 |  | O=C(NCC1CC1)c1cc(-c2ccc(OC(F)(F)F)cc2)cc(NC(=O)C2CC2)n1 [Example I-141] | 100 | 100 | 100 | 100 | 83 | 100
6 | 4.48 |  |  | 4.34 | O=C(NCc1ccc(Cl)cc1)c1cc(-c2ccc(C(F)(F)F)cc2)cc(NC(=O)C2CC2)n1 [Example I-008] | 100 | 95 |  |  | 100 | 100
7 | 4.56 | 4.50 |  |  | N#Cc1c(F)cc(CNC(=O)c2cc(-c3ccc(C(F)(F)C(F)(F)F)c(F)c3)cc(NC(=O)C3CC3)n2)cc1F [Example I-250] | 100 | 95 | 100 | 100 | 100 | 100
8 | 4.59 |  |  | 3.47 | CCC(=O)Nc1cc(-c2ccc(C(F)(F)F)cc2)cc(C(=O)NCc2ccc(C#N)cc2)n1 [Example I-048] |  | 100 |  | 100 | 83 | 100
9 |  |  | 4.00 |  | O=C(NC1CCC1)c1cc(-c2ccc(OC(F)(F)F)cc2)cc(NC(=O)C2CC2)n1 [Example I-133] | 100 | 100 |  |  | 100 | 100
10 | 3.67 |  |  | 3.58 | CN(Cc1ccc(C#N)cc1)C(=O)c1cc(-c2ccc(C(F)(F)F)cc2)cc(NC(=O)C2CC2)n1 [Example I-043] | 100 | 100 |  | 100 |  | 100
11 |  |  | 4.28 |  | CC(NC(=O)c1cc(-c2ccc(OC(F)(F)F)cc2)cc(NC(=O)C2CC2)n1)c1ccc([N+](=O)[O-])cc1 (stereo not shown) [Example I-228] | 100 | 100 |  | 100 | 83 | 100
12 |  |  | 4.14 | 4.02 | N#Cc1ccc(CNC(=O)c2cc(-c3ccc(OC(F)(F)F)cc3)cc(NC(=O)C3CC(F)(F)C3)n2)cc1 [Example I-213] | 100 | 100 | 100 | 100 | 100 | 
13 | 3.96 |  |  | 3.84 | O=C(NCc1ccc(-c2ncon2)cc1)c1cc(-c2ccc(OC(F)(F)F)cc2)cc(NC(=O)C2CC2)n1 [Example I-094] | 100 | 100 | 100 | 100 |  | 100
14 | 4.31 |  |  | 4.15 | CC(C)C(=O)Nc1cc(-c2ccc(OC(F)(F)F)cc2)cc(C(=O)NCc2c(F)cc(C#N)cc2F)n1 [Example I-070] | 98 | 100 |  | 100 |  | 83
15 |  |  | 3.07 | 2.95 | O=C(NC1COC1)c1cc(-c2ccc(OC(F)(F)F)cc2)cc(NC(=O)C2CC2)n1 [Example I-117] | 100 | 95 |  | 100 | 100 | 100
16 |  |  | 3.42 | 3.40 | CC(F)(F)c1ccc(-c2cc(NC(=O)C3CC3)nc(C(=O)NCc3ccc(C#N)cc3)c2)cc1 [Example I-192] | 100 | 90 | 100 | 100 | 100 | 100
17 | 4.01 |  |  | 3.87 | N#Cc1ccc(CNC(=O)c2cc(-c3ccc(OC(F)(F)F)cc3)cc(NC(=O)C3CC3)n2)cc1F [Example I-080] | 100 | 100 | 100 | 100 | 83 | 100
18 |  |  | 3.98 | 4.31 | N#Cc1ccc(CNC(=O)c2cc(-c3ccc(S(F)(F)(F)(F)F)cc3)cc(NC(=O)C3CC3)n2)cc1 [Example I-173] | 100 | 100 | 100 | 100 | 100 | 100
19 | 4.22 |  |  | 4.09 | CC(C)C(=O)Nc1cc(-c2ccc(OC(F)(F)F)cc2)cc(C(=O)NCc2ccc(C#N)cc2F)n1 [Example I-081] | 100 | 100 | 83 | 100 | 100 | 100
20 | 4.96 |  |  | 5.08 | O=C(Nc1ccc(Cl)cc1)c1cc(-c2ccc(C(F)(F)F)cc2)cc(NC(=O)C2CC2)n1 [Example I-021] |  | 85 |  | 100 |  | 100

From patent US20190053492A1, “SUBSTITUTED PYRIDINE COMPOUNDS AS PESTICIDES” (Bayer CropScience Aktiengesellschaft, priority 2016, published 2019)
